Measurements: ChEMBL document CHEMBL1136839, “3,4-Disubstituted isothiazoles: novel potent inhibitors of VEGF receptors 1 and 2” (Bioorg Med Chem Lett, 2009)

What was measured:
[1] = target: Hepatocyte growth factor receptor (Homo sapiens) (UniProt P08581); test: Inhibition of cMET at 10 uM by HTRF assay
[2] = target: Receptor-type tyrosine-protein kinase FLT3 (Homo sapiens) (UniProt P36888); test: Inhibition of Flt3 at 10 uM by HTRF assay
[3] = target: Epidermal growth factor receptor (Homo sapiens) (UniProt P00533); test: Inhibition of EGFR at 10 uM by HTRF assay
[4] = target: Insulin receptor (Homo sapiens) (UniProt P06213); test: Inhibition of InR at 10 uM by HTRF assay
Chain of Insulin receptor (Homo sapiens) (P06213 28-758 limits assumed): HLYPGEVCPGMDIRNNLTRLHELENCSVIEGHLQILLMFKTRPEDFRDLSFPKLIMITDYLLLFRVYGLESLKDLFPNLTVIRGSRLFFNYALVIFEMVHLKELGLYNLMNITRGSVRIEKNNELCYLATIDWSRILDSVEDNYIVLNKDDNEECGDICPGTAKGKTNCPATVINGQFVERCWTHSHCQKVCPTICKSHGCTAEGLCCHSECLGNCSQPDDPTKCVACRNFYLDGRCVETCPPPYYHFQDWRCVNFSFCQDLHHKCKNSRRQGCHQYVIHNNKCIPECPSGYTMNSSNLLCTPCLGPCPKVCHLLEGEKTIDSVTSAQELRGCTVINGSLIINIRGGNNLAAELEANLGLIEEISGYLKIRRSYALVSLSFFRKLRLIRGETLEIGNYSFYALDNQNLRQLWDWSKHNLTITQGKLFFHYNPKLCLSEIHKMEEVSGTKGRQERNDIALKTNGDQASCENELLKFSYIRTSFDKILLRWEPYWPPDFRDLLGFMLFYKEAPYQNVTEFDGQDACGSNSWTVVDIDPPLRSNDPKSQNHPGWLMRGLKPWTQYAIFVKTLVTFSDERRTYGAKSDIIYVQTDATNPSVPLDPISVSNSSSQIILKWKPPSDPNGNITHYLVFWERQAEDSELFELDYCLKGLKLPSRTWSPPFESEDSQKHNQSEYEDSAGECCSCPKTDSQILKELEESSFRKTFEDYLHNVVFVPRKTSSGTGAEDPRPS
Chain of Insulin receptor (Homo sapiens) (P06213 763-1382 limits assumed): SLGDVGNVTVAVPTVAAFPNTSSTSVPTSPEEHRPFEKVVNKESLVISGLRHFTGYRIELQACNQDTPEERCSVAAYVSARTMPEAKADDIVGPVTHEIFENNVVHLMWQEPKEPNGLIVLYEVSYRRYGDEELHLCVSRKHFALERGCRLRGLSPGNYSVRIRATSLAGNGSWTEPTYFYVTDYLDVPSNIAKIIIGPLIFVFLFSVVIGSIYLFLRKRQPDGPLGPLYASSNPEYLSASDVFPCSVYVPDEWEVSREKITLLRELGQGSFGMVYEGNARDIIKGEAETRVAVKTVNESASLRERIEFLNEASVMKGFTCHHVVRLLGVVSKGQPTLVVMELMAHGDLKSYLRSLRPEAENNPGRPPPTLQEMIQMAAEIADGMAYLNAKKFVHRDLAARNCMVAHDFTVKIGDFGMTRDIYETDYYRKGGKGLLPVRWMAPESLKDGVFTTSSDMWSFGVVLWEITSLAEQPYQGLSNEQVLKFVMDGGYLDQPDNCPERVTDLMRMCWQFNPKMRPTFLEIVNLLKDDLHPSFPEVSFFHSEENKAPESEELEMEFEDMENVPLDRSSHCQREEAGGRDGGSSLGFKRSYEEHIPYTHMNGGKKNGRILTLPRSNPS

[5] = Inhibition of PKA at 10 uM by HTRF assay
[6] = target: Bcr/Abl fusion protein (Homo sapiens) (UniProt P00519+P11274); test: Inhibition of bcr-Abl at 10 uM by HTRF assay; format: protein assay
[7] = target: Glycogen synthase kinase-3 beta (Homo sapiens) (UniProt P49841); test: Inhibition of GSK3-beta at 10 uM by HTRF assay
Chain of Glycogen synthase kinase-3 beta (Homo sapiens) (P49841 whole entry, looked up): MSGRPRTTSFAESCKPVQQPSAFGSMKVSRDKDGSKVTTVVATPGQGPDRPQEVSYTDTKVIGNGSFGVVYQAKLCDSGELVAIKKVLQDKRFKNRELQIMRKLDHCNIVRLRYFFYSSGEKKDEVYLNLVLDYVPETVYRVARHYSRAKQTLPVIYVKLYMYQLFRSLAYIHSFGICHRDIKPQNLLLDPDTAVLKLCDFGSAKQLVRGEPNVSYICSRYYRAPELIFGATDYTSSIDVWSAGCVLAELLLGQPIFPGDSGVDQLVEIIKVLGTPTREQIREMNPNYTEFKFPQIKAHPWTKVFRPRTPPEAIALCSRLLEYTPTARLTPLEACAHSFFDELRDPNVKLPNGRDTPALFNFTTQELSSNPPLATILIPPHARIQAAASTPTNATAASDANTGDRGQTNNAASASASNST

[8] = target: T1, Vascular endothelial growth factor receptor 2 (Homo sapiens, UniProt P35968); test: Inhibition of VEGFR2 assessed as blockade of pGAT-biotin phosphorylation in presence of 2 uM ATP by HTRF assay
T1 sequence (P35968 whole entry): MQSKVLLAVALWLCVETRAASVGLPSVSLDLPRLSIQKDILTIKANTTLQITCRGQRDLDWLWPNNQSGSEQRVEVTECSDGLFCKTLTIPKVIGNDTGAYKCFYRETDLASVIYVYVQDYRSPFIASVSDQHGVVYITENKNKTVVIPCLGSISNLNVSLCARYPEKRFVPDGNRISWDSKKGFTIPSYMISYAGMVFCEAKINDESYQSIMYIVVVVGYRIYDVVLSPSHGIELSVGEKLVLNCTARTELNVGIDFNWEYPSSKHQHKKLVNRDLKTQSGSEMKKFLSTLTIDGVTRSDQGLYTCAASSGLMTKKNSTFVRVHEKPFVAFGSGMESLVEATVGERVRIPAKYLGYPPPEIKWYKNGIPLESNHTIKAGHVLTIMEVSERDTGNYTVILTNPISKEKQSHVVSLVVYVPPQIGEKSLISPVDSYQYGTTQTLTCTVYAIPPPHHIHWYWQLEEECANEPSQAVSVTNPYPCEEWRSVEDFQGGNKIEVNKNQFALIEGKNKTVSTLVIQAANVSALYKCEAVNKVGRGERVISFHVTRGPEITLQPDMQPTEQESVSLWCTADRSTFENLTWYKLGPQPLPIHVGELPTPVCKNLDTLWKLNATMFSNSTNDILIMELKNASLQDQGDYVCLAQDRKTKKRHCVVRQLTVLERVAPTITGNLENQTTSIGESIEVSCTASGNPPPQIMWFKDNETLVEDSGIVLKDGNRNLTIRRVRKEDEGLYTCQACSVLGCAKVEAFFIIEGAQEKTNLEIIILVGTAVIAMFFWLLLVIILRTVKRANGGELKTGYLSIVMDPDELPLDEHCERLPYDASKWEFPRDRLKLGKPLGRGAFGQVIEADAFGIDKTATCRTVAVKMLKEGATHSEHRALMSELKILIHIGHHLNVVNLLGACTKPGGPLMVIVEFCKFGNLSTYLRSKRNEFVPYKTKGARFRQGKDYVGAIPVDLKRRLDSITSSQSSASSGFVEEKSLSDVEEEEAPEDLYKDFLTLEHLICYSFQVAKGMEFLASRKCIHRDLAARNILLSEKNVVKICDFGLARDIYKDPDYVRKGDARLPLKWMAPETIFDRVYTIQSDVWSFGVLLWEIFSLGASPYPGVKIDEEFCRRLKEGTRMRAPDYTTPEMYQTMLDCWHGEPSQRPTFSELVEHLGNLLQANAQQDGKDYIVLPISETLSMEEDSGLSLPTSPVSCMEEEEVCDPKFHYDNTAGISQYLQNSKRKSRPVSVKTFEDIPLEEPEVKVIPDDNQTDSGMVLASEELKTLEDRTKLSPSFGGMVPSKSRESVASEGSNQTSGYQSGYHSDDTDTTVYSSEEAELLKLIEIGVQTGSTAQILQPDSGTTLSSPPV

[9] = target: T2, Aurora kinase A (Homo sapiens) (UniProt O14965); test: Inhibition of Aurora A at 10 uM by HTRF assay
T2 sequence (whole entry): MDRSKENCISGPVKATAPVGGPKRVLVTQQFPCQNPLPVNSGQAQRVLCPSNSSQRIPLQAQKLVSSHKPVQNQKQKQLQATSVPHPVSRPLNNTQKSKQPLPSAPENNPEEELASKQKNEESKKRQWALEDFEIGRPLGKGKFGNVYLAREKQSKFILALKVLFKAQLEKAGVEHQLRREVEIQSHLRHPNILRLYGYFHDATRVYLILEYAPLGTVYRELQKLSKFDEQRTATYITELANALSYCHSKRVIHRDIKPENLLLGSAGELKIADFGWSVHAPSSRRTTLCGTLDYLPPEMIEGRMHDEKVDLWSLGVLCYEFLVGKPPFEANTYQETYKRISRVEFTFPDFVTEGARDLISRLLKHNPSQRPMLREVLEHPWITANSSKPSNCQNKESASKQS

[10] = target: Receptor tyrosine-protein kinase erbB-2 (Homo sapiens) (UniProt P04626); test: Inhibition of ErbB2 at 10 uM by HTRF assay
[11] = target: Serine/threonine-protein kinase PLK1 (Homo sapiens) (UniProt P53350); test: Inhibition of Plk1 at 10 uM by HTRF assay
[12] = target: Proto-oncogene tyrosine-protein kinase Src (Homo sapiens) (UniProt P12931); test: Inhibition of Src at 10 uM by HTRF assay
Chain of Proto-oncogene tyrosine-protein kinase Src (Homo sapiens) (P12931 2-536 limits assumed): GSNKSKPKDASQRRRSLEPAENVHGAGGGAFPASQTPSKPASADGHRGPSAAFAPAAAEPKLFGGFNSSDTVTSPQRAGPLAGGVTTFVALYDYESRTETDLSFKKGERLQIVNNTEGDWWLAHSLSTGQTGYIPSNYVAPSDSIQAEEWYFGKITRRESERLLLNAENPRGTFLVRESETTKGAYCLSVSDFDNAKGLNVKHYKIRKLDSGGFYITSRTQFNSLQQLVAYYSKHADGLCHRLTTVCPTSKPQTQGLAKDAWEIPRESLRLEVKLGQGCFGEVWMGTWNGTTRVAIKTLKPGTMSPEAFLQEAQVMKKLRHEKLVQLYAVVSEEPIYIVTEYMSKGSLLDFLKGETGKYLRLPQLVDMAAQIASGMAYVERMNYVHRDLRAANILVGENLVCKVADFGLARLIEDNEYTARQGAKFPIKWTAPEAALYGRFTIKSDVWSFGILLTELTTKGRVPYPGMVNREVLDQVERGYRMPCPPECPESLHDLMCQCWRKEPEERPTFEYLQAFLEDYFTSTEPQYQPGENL

[13] = target: T1, Vascular endothelial growth factor receptor 2; test: Inhibition of VEGFR2 expressed in HEK293 cells assessed as inhibition of receptor phosphorylation by ELISA; format: cell-based
[14] = target: Fibroblast growth factor receptor 1 (Homo sapiens) (UniProt P11362); test: Inhibition of FGFR1 at 10 uM by HTRF assay
Chain of Fibroblast growth factor receptor 1 (Homo sapiens) (P11362 22-822 limits assumed): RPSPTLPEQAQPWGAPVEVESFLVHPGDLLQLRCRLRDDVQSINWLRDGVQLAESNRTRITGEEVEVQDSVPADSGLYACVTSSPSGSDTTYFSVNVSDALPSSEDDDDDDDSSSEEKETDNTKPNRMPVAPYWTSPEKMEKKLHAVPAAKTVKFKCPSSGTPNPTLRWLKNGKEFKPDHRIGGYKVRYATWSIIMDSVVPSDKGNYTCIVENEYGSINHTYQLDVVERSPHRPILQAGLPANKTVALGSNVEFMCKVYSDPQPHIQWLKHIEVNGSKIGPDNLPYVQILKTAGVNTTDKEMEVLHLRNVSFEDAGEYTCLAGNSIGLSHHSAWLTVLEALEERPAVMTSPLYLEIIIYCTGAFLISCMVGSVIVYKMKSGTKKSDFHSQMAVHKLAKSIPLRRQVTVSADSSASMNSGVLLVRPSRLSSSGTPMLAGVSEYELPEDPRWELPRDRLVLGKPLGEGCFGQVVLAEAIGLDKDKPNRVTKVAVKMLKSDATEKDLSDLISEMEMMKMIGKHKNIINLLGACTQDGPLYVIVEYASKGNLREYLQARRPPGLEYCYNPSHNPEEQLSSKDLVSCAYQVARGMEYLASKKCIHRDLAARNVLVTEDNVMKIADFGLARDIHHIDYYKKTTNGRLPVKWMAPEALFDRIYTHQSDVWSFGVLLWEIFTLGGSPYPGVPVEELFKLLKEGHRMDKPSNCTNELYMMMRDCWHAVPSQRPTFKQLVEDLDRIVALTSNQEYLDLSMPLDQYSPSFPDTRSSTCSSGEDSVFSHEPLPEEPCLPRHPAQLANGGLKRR

[15] = target: Insulin-like growth factor 1 receptor (Homo sapiens) (UniProt P08069); test: Inhibition of IGF1R at 10 uM by HTRF assay
[16] = target: Cyclin-dependent kinase 2 (Homo sapiens) (UniProt P24941); test: Inhibition of CDK2 at 10 uM by HTRF assay
[17] = target: Vascular endothelial growth factor receptor 1 (Homo sapiens, UniProt P17948); test: Inhibition of VEGFR1 assessed as blockade of pGAT-biotin phosphorylation in presence of 2 uM ATP by HTRF assay
[18] = target: Macrophage-stimulating protein receptor (Homo sapiens) (UniProt Q04912); test: Inhibition of Ron at 10 uM by HTRF assay
[19] = target: Cyclin-dependent kinase 1 (Homo sapiens) (UniProt P06493); test: Inhibition of CDK1 at 10 uM by HTRF assay
Chain of Cyclin-dependent kinase 1 (Homo sapiens) (P06493 whole entry, looked up): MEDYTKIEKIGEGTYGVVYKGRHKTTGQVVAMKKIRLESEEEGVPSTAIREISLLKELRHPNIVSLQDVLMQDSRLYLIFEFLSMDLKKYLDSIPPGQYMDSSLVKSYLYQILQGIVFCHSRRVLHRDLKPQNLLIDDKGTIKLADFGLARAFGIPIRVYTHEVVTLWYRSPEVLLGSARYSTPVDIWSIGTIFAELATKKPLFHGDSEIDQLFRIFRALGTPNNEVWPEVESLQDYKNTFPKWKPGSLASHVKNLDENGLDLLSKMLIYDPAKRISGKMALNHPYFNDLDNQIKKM

[20] = target: Aurora kinase B (Homo sapiens) (UniProt Q96GD4); test: Inhibition of Aurora B at 10 uM by HTRF assay
[21] = Inhibition of Bcr-Abl T315 mutant at 10 uM by HTRF assay

Row | inhibition [1] | inhibition [2] | inhibition [3] | inhibition [4] | inhibition [5] | inhibition [6] | inhibition [7] | inhibition [10] | inhibition [12] | inhibition [14] | inhibition [15] | inhibition [16] | inhibition [18] | inhibition [19] | inhibition [21] | also measured | SMILES
1 | < 30% | < 30% | < 30% | < 30% | < 30% | < 30% | < 30% | < 30% | < 30% | < 30% | < 30% | < 30% | < 30% | < 30% | < 30% | IC50 [8]: 0.67 µM; inhibition [9]: < 30%; inhibition [11]: < 30%; IC50 [13]: 1.11 µM; IC50 [17]: 0.75 µM; inhibition [20]: < 30% | O=C(Nc1ccc(Cl)c(Cl)c1)c1nscc1NCc1ccncc1
2 | < 30% | < 30% | < 30% | < 30% | < 30% | < 30% | < 30% | < 30% | < 30% | < 30% | < 30% | < 30% | < 30% | < 30% | < 30% | – | O=C(Nc1ccc(C(F)(F)F)cc1)c1nscc1NCc1cccnc1
3 | < 30% | < 30% | < 30% | < 30% | < 30% | < 30% | < 30% | < 30% | < 30% | < 30% | < 30% | < 30% | < 30% | < 30% | < 30% | IC50 [8]: 0.23 µM; inhibition [9]: < 30%; inhibition [11]: < 30%; IC50 [13]: 0.53 µM; IC50 [17]: 0.98 µM; inhibition [20]: < 30% | O=C(Nc1ccc(Cl)c(C(F)(F)F)c1)c1nscc1NCc1ccncc1
4 | < 30% | < 30% | < 30% | < 30% | < 30% | < 30% | < 30% | < 30% | < 30% | < 30% | < 30% | < 30% | < 30% | < 30% | < 30% | – | O=C(Nc1cccc(C(F)(F)F)c1)c1nscc1NCc1cccnc1
5 | < 30% | < 30% | < 30% | < 30% | < 30% | < 30% | < 30% | < 30% | < 30% | < 30% | < 30% | < 30% | < 30% | < 30% | < 30% | – | Cc1cc(NC(=O)c2nscc2NCc2ccncc2)ccc1C(F)(F)F
6 | < 30% | < 30% | < 30% | < 30% | < 30% | < 30% | < 30% | < 30% | < 30% | < 30% | < 30% | < 30% | < 30% | < 30% | < 30% | – | O=C(Nc1ccc(C(F)(F)F)cc1)c1nscc1NCc1ccccn1
7 | < 30% | < 30% | < 30% | < 30% | < 30% | < 30% | < 30% | < 30% | < 30% | < 30% | < 30% | < 30% | < 30% | < 30% | < 30% | – | O=C(Nc1cccc(C(F)(F)F)c1)c1nscc1NCc1ccc(F)c(F)c1
8 | < 30% | < 30% | < 30% | < 30% | < 30% | < 30% | < 30% | < 30% | < 30% | < 30% | < 30% | < 30% | < 30% | < 30% | < 30% | – | O=C(Nc1ccc2[nH]ncc2c1)c1nscc1NCc1ccncc1
9 | < 30% | < 30% | < 30% | < 30% | < 30% | < 30% | < 30% | < 30% | < 30% | < 30% | < 30% | < 30% | < 30% | < 30% | < 30% | – | O=C(Nc1ccc(Cl)cc1)c1nscc1NCc1ccncc1
10 | < 30% | < 30% | < 30% | < 30% | < 30% | < 30% | < 30% | < 30% | < 30% | < 30% | < 30% | < 30% | < 30% | < 30% | < 30% | – | Cc1ccc(NC(=O)c2nscc2NCc2ccncc2)c(F)c1
11 | < 30% | < 30% | < 30% | < 30% | < 30% | < 30% | < 30% | < 30% | < 30% | < 30% | < 30% | < 30% | < 30% | < 30% | < 30% | – | O=C(Nc1ccccc1Br)c1nscc1NCc1ccncc1
12 | < 30% | < 30% | < 30% | < 30% | < 30% | < 30% | < 30% | < 30% | < 30% | < 30% | < 30% | < 30% | < 30% | < 30% | < 30% | – | O=C(Nc1cccc(Br)c1)c1nscc1NCc1cnoc1
13 | < 30% | < 30% | < 30% | < 30% | < 30% | < 30% | < 30% | < 30% | < 30% | < 30% | < 30% | < 30% | < 30% | < 30% | < 30% | – | O=C(Nc1ccc(OC(F)(F)F)cc1)c1nscc1NCc1ccncc1
14 | < 30% | < 30% | < 30% | < 30% | < 30% | < 30% | < 30% | < 30% | < 30% | < 30% | < 30% | < 30% | < 30% | < 30% | < 30% | – | O=C(Nc1ccc(C(F)(F)F)cc1)c1nscc1NCc1ccncc1
15 | < 30% | < 30% | < 30% | < 30% | < 30% | < 30% | < 30% | < 30% | < 30% | < 30% | < 30% | < 30% | < 30% | < 30% | < 30% | – | CC(C)(C)c1ccc(NC(=O)c2nscc2NCc2ccncc2)cc1
